These results are taken from US20230382951A1, “BRAIN PENETRATING PEPTIDES” (BOARD OF REGENTS, THE UNIVERSITY OF TEXAS SYSTEM, priority 2020, published 2023).

The subject of this experiment is hCMEC/D3 cells. Particulars: third round of biopanning.

Description: CX7C-presenting M13 phage biopanning against hCMEC/D3 cells. A M13 phage CX7C library was used to pan against established BBB model hCMEC/D3 in vitro to identify potential brain-penetrating peptides. hCMEC/D3 cells (CELLutions Biosystems Inc.) were cultured in EndoGRO medium (Millipore, #SCME004) on Collagen I (Fisher Scientific, #44310001) coated Culture Ware (150 μg/ml, coated for at least 1 h at 37° C.)^110. […] To establish the cell monolayer on the transwell plate setup, hCMEC/D3 cells (passage 27-30) were seeded on a pre-coated collagen I (100 μg/ml for 3 h) coated 12-well transwell plate (Corning, #3401) at a density of 1.5-2.0*10^5 cells/cm^2 for 12-15 days^49. Transepithelial electrical resistance measurements and permeability assay with small tracer molecule sodium fluorescein were used to monitor the tightness of hCMEC/D3 monolayer. Prior to biopanning, hCMEC/D3 cells were incubated in fetal bovine serum depleted medium for 1 h at 37° C., and then 10^11 plaque forming units (pfu) of M13 phage CX7C library (NEB, #E8120S) was added to the donor compartment of the transwell and incubated for 1 h at 37° C. […]
The NGS data from two replicates of MiSeq run were analyzed on Stampede, a supercomputer run on Texas Advanced Computing Center at UT-Austin. First, to confirm the sequence quality and trim the low-quality sequence reads, fastqc and fastx_toolkit were used on the dataset. […]

As to NAGHLSQ [Pep-1], the “frequency relative to second most frequent peptide Pep-2” value is given as “approximately five-fold higher”.
